Results: patent publication US11980687B2, “Liposomal compounds and methods of use thereof” (University of Kentucky Research Foundation, priority 2019, dated 2024)

Columns and labels:
macrophages [1] = assay: Immunohistochemistry of macrophages in the peri-infarct zone; format: in vivo, mice
Experimental: Heart sections (N=4/treatment group) were prepared as described in the previous section. Immunostaining of heart sections was performed on deparaffinized and rehydrated sections as previously described (Al-Darraji, Haydar et al. 2018). Briefly, after deparaffinization and rehydration, sections were incubated with primary antibodies: rabbit anti-mouse IBA1 (Wako), goat anti-mouse CD206 (R and D Systems), and goat anti-mouse IL-1β (R & D Systems) overnight at 4° C., then washed and incubated with secondary antibodies conjugated to Alexa Fluor 488 or 594 (Invitrogen), followed by incubation with DAPI. In the peri-infarct area, 10-15 adjacent zones per section (1-2 sections/animal) were imaged at 40× magnification utilizing Nikon Confocal Microscope A1 in the University of Kentucky Confocal Microscopy facility. Nucleated cells that were antibody-positive were quantified using Cell Counter plugin for Nikon NIS-Elements (version AR 3.2). Findings are presented as total number of positive cells per high power field in the area of interest.

[2] = system: pro- and anti-inflammatory cytokine expression; assay: RT-PCR of inflammatory and reparative gene expression in heart and blood cells post-MI; format: in vivo, mice
Experimental: PureLink RNA Mini Kit (ThermoFisher Scientific) was used to isolate total mRNA from heart and blood cells according to manufacturer protocol. Isolated RNA was quantified using NanoDrop 8000 spectrophotometer (Thermofisher). Next, cDNA was generated using SuperScript VILO cDNA synthesis kit (Invitrogen). Using a QuantaStudio 7 Flex real-time thermocycler (Applied Biosystems by life technology), Reverse Transcription-Polymerase Chain Reaction (RT-PCR) was performed to measure the mRNA expression of markers identifying: inducible nitric oxide synthase (iNOS), tumor necrosis factor alpha (TNF-α), monocyte chemotactic protein-1 (MCP-1), transforming growth factor beta (TGF-β), interleukin-1 beta (IL-1β), interleukin-6 (IL-6), interleukin-4 (IL-4), chitinase-like3 Chil3 (YM1), interleukin-10 (IL10), arginase-1 (ARG-1), and Peroxisome proliferator-activated receptor gamma (PPARg). We used the comparative Ct method for relative estimation of mRNA expression which was normalized to 18s (a housekeeping gene). […]

Ly6C^hi monocytes = assay: Flow cytometry of Ly6C^hi monocytes in heart and blood post-MI; format: in vivo, mice; settings: first day after injury; effect disappears at later timepoints
Experimental: (§1) Cell phenotype, in addition to gene analyses, of monocytes and neutrophils were investigated in peripheral blood as previously described ([…] et al. 2018). Briefly, blood was collected in tubes with a 1:5 ratio of ethylene diaminetetraacetic acid (EDTA)/citrate-theophylline-adenosinedipyridamole (CTAD) on days 1, 3 and 7 post-MI. Whole blood was centrifuged for 5 minutes at 500×g, and the plasma layer was separated and reserved at -80° C. To lyse red blood cells, the residual cell pellet was incubated with 0.5 ml of diluted red blood lysing buffer (BD pharm lyse) for 10 minutes with mild agitation. To end the lysis process, 0.5 ml of staining buffer (5% goat serum, 0.05% sodium azide in phosphate-buffered saline) was added to the suspension of red blood cell lysed blood. Then, the suspension was centrifuged at 400×g for 5 minutes, and the supernatant was removed. This step was repeated if the red blood cells were still detectable in the cell pellet. White blood cell pellet was washed twice in staining buffer to remove any residual lysis buffer. After supernatant removal, the pellet was resuspended in a pre-determined volume of staining buffer and counted. […] Following incubation, cells were washed twice with staining buffer and analyzed by an LSR II (Becton Dickinson) in the University of Kentucky Flow Cytometry Core. […]

infarcted heart = assay: Masson's trichrome scar size 30 days post-MI; format: in vivo, mice; settings: compared to controls
Experimental: Histological analysis was performed on deparaffinized and rehydrated sections as previously described (Al-Darraji, Haydar et al. 2018). Briefly, 30 day post-MI mice (N=6-10/treatment group) were sacrificed under isoflurane anesthesia and hearts were isolated. Hearts were perfused with PBS (VWR International) then by 10% buffered formalin (VWR International) at 75 mmHg. Perfused hearts were placed in 10% neutral buffered formalin (VWR) overnight at room temperature, then sectioned into 2-mm cross-sections starting at the level of coronary ligation then imbedded in paraffin and sectioned into 4-μm sections. Sections were stained with Masson's trichrome to evaluate scar size as previously described (Al-Darraji, Haydar et al. 2018). Digital images of stained sections were acquired, and areas of interest were assessed using NIH ImageJ […] software. The LV area, LV cavity area, and infarct area were measured as previously described (Al-Darraji, Haydar et al. 2018). Scar size was presented as a percentage of the total LV […].

heart = assay: Hemodynamic and ECG effects after retro-orbital administration; format: in vivo, mice; settings: 40 mg/kg retro-orbital
Experimental: Mice were anaesthetized using 1%-3% isoflurane during Echocardiography to maintain heart rate of 450-500 BPM during imaging. A Vevo 3100 system coupled with a 15-7-MHz linear broadband transducer and a 12-5-MHz phased array transducer was used to perform Echocardiogram analyses. Heart function was examined at baseline (before cardiac surgery) then one-week and 4 weeks post-MI. During acquisition, a heating pad was used to preserve the body temperature at 37° C.; the temperature was continuously assessed by a rectal temperature probe. Using modified parasternal long-axis and short-axis, two-dimensional and Doppler echocardiography was used to assess the LV function and volume in M-mode. Tracings at the mid-papillary level to investigate the systolic and diastolic parameters and Teichholz formula were used to quantify LV function. Echocardiography imaging and analyses were carried out by a blinded investigator. Mice were anesthetized with 2% isoflurane, then placed on the ECG platform. Electrodes were inserted subcutaneously on the two front paws and the left rear paw followed by ECG recording for 2-3 minutes. Once the recording was completed, the data were analyzed using Chart software (PhysioTel).

macrophages [3] = assay: Flow cytometry of macrophage phenotypes in the injured heart; format: in vivo, mice; settings: heart post-MI, relative to Lazm
Experimental: Phenotypic cell analysis of macrophages and neutrophils and gene expression analysis was conducted in the heart as previously described ([…] et al. 2018). Briefly, mice were sacrificed, and hearts were rapidly isolated and placed in ice cold PBS (VWR International). Using a razor blade, the heart was minced manually. After mincing, tissue was incubated with a Collagenase B (Roche, Indianapolis, IN) and Dispase II (Roche, Indianapolis, IN) mixture at 37° C. for 30 minutes, with gentle agitation every 5-10 minutes. Tissue digestion ceased using cold staining buffer and the suspension was placed on ice and filtered using a 70 μm cell strainer, followed by centrifugation at 400×g for 5 mins at 4° C. Supernatant was discarded and the pellet was resuspended in 0.3 ml of staining buffer. Individual heart cells were divided into approximately three equal portions depending on cell counting with 10^6 live (trypan blue-negative) cells in each. Two portions were used for cell staining while the remainder was incubated with cell lysis buffer (Life technologies) using multiple aggressive agitations, for 10 minutes and reserved at -80° C. for further gene expression analysis. […] Cells were then washed twice with staining buffer and analyzed by an LSR II (Becton Dickinson) in the University of Kentucky Flow Cytometry Core. […]

neutrophils = assay: Flow cytometry of neutrophils and N1 neutrophils in heart and blood post-MI; format: in vivo, mice; settings: day 1 post-MI
Experimental: as §1

cardiac cells = assay: TUNEL and caspase-3 staining of apoptosis in the peri-infarct region; format: in vivo, mice; settings: peri-infarct regions, 3 days post-MI, compared to vehicle control
Experimental: Cell apoptosis was examined on deparaffinized and rehydrated sections from mice (N=4/treatment group) sacrificed at day 3, as previously described ([…] et al. 2018). TUNEL and caspase-3 staining was performed in the Biospecimen Procurement and Translational Pathology Shared Resource Facility (BPTP SRF) at the University of Kentucky. Nucleated cells that stained positive were estimated. Quantification was performed using Cell Counter plugin for ImageJ (version 1.51d). Findings are presented as total positive cells per high power field in the peri-infract region. All measurements were obtained in the peri-infarcted areas only and analyzed by blinded observer.

[4] = cited from earlier work
IL-1β = IL-1β (Homo sapiens, UniProt P01584); settings: cited from earlier work

Row | Molecule | reparative macrophages (CD206+) in peri-infarct zone (macrophages [1]; day 3 post-MI, compared to control groups) | expression of IL-1β in macrophages (IBA1+IL-1β+) (macrophages [1]; peri-infarct zones, 3 days post-MI, compared to controls) | expression of anti-inflammatory cytokines and reparative macrophage markers (TGF-β, IL-10, IL-4, ARG, Fizz1, PPARγ, YM1) in cardiac tissue ([2]; consistent effects up to day 7) | mRNA levels of iNOS and pro-inflammatory cytokines (MCP-1, TNF-α, IL-6, IL-1β) in cardiac tissue ([2]; particularly days 1 and 3 post-infarct) | Ly6C^hi (pro-inflammatory) monocytes in the heart (Ly6C^hi monocytes) | mortality during drug administration (40 mg/kg IV, post-MI) | survival (35 days post-MI, vs vehicle-treated mice) | scar size (percentage of LV area) (infarcted heart) | QT interval (heart) | RR (heart; compared with baseline) | cardiac output (heart; compared with baseline) | ejection fraction (heart; compared with baseline) | heart rate (heart; compared with baseline) | immunomodulatory changes of heart macrophages (FACS) (macrophages [3]) | neutrophil counts in the heart (neutrophils) | TUNEL positive cells (late apoptosis) (cardiac cells) | caspase-3 positive cells (early apoptosis) (cardiac cells) | post-MI cardiac recovery ([4]; 160 mg/kg/day, orally, initiated 3 days pre-MI) | neutrophil counts ([4]; first study, mice receiving AZM) | cardiovascular events reoccurrence (IL-1β)
1 | CC[C@H]1OC(=O)[C@H](C)[C@@H](O[C@H]2C[C@@](C)(OC)[C@@H](O)[C@H](C)O2)[C@H](C)[C@@H](O[C@@H]2O[C@H](C)C[C@H](N(C)C)[C@H]2O)[C@](C)(O)C[C@@H](C)CN(C)[C@H](C)[C@@H](O)[C@]1(C)O [free AZM, azithromycin] | significant increase | marked reduction | significantly upregulated | substantially downregulated | significantly decrease in the first day after injury | occurs during the drug administration due to severe changes in cardiac conduction and hemodynamic parameters | marked improvement in survival | significant reduction | prolonged | remarkably reduces | remarkably reduces | remarkably reduces | remarkably reduces | Less powerful immunomodulatory changes | did not see significant changes | remarkable reduction | remarkable reduction | enhances post-MI cardiac recovery | substantially decreased | 
2 | canakinumab: monoclonal antibody targeting IL-1β |  |  |  |  |  |  |  |  |  |  |  |  |  |  |  |  |  |  |  | significantly decreases cardiovascular events reoccurrence
